By IC50 is commonly meant the concentration that gives 50% inhibition. A word on the EC50: it is the midpoint of the concentration-response curve.

In patent US20250163038A1, “CBL-B MODULATORS AND USES THEREOF” (Nimbus Clio, Inc., priority 2021, published 2025) one finds IC50 and EC50 data, which are given here for 16 molecules.

SMILES strings stand for the structures. Where only a bound is given, the exact number is not on record here.

For experiment [1], the target named is T1, Recombinant human c-Cbl (aa 47-435) (Homo sapiens, UniProt P22681).
T1 sequence (P22681 47-435): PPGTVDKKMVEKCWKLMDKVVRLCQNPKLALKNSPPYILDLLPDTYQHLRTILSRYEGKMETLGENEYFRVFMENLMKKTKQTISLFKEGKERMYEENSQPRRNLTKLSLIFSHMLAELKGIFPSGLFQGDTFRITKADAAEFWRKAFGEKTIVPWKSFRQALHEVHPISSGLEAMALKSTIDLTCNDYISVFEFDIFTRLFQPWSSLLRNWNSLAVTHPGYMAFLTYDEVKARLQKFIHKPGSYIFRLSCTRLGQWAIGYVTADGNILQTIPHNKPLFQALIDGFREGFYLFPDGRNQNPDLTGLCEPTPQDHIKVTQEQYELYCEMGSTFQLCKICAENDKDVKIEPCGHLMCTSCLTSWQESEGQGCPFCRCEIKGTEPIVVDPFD
As to the kind of experiment: c-Cbl Biochemical Assay (TR-FRET). To be noted: hc-Cbl Biochemical Assay (TR-FRET); read-out: TR-FRET hcCbl IC50. A general note: Time-resolved FRET reads energy transfer from a long-lived donor to a nearby acceptor.

Experiment [2] addresses Recombinant human Cbl-b (aa 36-427) (Homo sapiens, UniProt Q13191). The experiment can be described thus: Cbl-b Biochemical Assay (TR-FRET). The conditions noted are these: read-out: TR-FRET hCbl-b IC50.
Experiment [3] deals with Jurkat (clone E6-1) cells with NFAT luciferase reporter. As to the kind of experiment: Jurkat reporter assay (NFAT Luciferase). Type of experiment: cell-based. To be noted: Homo sapiens; Jurkat NFAT luciferase reporter cells, anti-CD3 stimulation, 6 hr; read-out: Jurkat NFAT EC50. In general terms: Reporter assays use an easily measured gene product as a stand-in for the process of interest.

Sequence of Recombinant human Cbl-b (aa 36-427) (Q13191 36-427): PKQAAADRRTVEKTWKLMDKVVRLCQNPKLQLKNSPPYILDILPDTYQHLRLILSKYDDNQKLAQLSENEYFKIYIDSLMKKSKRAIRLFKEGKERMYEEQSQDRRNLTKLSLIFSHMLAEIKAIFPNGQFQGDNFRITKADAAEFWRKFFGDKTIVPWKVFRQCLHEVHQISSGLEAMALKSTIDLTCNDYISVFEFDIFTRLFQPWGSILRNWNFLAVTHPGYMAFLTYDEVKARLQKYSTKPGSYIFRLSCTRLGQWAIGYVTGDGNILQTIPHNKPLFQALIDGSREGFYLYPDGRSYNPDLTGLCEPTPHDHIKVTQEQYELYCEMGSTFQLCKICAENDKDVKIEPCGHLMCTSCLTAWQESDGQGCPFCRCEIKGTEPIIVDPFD

As for `Cn1cnnc1-c1cc(F)ccc1-c1cc(-c2nc3cc(CNCC4CCC4)cc(C(F)(F)F)c3o2)cc(C2CC2)c1` [JU-1, 1-Cyclobutyl-N-((2-(5-cyclopropyl-4′-fluoro-2′-(4-methyl-4H-1,2,4-triazol-3-yl)-[1,1′-biphenyl]-3-yl)-7-(trifluoromethyl)benzo[d]oxazol-5-yl)methyl)methanamine], the IC50 in experiment [1] and in experiment [2] was below 200 nM each time. Besides, the EC50 in experiment [3] was below 200 nM.
As to `Cn1cnnc1-c1cc(F)ccc1-c1cccc(-c2nc3cc(CO)cc(C(F)F)c3o2)c1` [EX-6, (7-(Difluoromethyl)-2-(4′-fluoro-2′-(4-methyl-4H-1,2,4-triazol-3-yl)-[1,1′-biphenyl]-3-yl)benzo[d]oxazol-5-yl)methanol], the IC50 in experiment [1] and in experiment [2] was 200 to 1000 nM each time. Also, the EC50 in experiment [3] was 1000 to 10000 nM.
As for `Cn1cnnc1-c1cc(F)ccc1-c1cccc(-c2nc3cc(CNCCC4CCCC4)cc(C(F)(F)F)c3o2)c1` [HN-1, 2-Cyclopentyl-N-((2-(4′-fluoro-2′-(4-methyl-4H-1,2,4-triazol-3-yl)-[1,1′-biphenyl]-3-yl)-7-(trifluoromethyl)benzo[d]oxazol-5-yl)methyl)ethan-1-amine], the IC50 in experiment [1] and in experiment [2] was below 200 nM in each case. Also, in experiment [3], the EC50 lay in the range of 200 to 1000 nM.
For `Cn1cnnc1-c1cc(F)ccc1-c1cccc(-c2nc3cc(CN[C@@H]4CCC[C@@H]4O)c(F)cc3o2)c1` [IP-7, (1S,2R)-2-(((6-Fluoro-2-(4′-fluoro-2′-(4-methyl-4H-1,2,4-triazol-3-yl)-[1,1′-biphenyl]-3-yl)benzo[d]oxazol-5-yl)methyl)amino)cyclopentan-1-ol], the IC50 in experiment [1] and in experiment [2] was below 200 nM in each case. The EC50 in experiment [3] is below 200 nM.
On to `CCCNCc1cc(C(F)(F)F)c2oc(-c3cccc(-c4ccc(F)cc4-c4nncn4C)c3)nc2c1` [FL-2, N-((2-(4′-Fluoro-2′-(4-methyl-4H-1,2,4-triazol-3-yl)-[1,1′-biphenyl]-3-yl)-7-(trifluoromethyl)benzo[d]oxazol-5-yl)methyl)propan-1-amine], for which the 50% inhibitory concentration (IC50) in experiment [1] and in experiment [2] was below 200 nM each time. Also, in experiment [3], the concentration giving a half-maximal response (EC50) was below 200 nM.
With `C[C@@H]1CCCN(Cc2cc(C(F)(F)F)c3oc(-c4cc(-c5ccccc5-c5nncn5C)cc(C5CC5)n4)nc3c2)C1` [AAQ-2, 2-{6-Cyclopropyl-4-[2-(4-methyl-1,2,4-triazol-3-yl)phenyl]pyridin-2-yl}-5-{[(3R)-3-methylpiperidin-1-yl]methyl}-7-(trifluoromethyl)-1,3-benzoxazole], the IC50 in experiment [1] was in the range of 1000 to 10000 nM; in experiment [2], 200 to 1000 nM. Besides, in experiment [3], the EC50 was 1000 to 10000 nM.
Consider `Cn1cnnc1-c1cc(Cl)ccc1-c1cc(-c2nc3cc(CNCC4(O)CCC4)cc(F)c3o2)nc(C2CC2)c1` [AHI-5, 1-({[(2-{4-[4-chloro-2-(4-methyl-1,2,4-triazol-3-yl)phenyl]-6-cyclopropylpyridin-2-yl}-7-fluoro-1,3-benzoxazol-5-yl)methyl]amino}methyl)cyclobutan-1-ol], for which the IC50 in experiment [1] and in experiment [2] was below 200 nM throughout. Moreover, in experiment [3], the EC50 was below 200 nM.
Take `COC1(CNC2(c3cc(F)c4oc(-c5cc(-c6ccc(F)cc6-c6nncn6C)cc(C6CC6)n5)nc4c3)CC2)CCC1` [AGO-2, 1-(2-{6-Cyclopropyl-4-[4-fluoro-2-(4-methyl-1,2,4-triazol-3-yl)phenyl]pyridin-2-yl}-7-fluoro-1,3-benzoxazol-5-yl)-N-[(1-methoxycyclobutyl)methyl]cyclopropan-1-amine]: the IC50 in experiment [1] is 200 to 1000 nM; in experiment [2], below 200 nM. Moreover, the EC50 in experiment [3] lay in the range of 200 to 1000 nM.
For the molecule `Cn1cnnc1-c1cc(F)ccc1-c1cccc(-c2nc3cc(CN4CC(C)(O)C4)cc(C(F)(F)F)c3[nH]2)c1` [BR-1, 1-((2-(4′-Fluoro-2′-(4-methyl-4H-1,2,4-triazol-3-yl)-[1,1′-biphenyl]-3-yl)-7-(trifluoromethyl)-1H-benzo[d]imidazol-5-yl)methyl)-3-methylazetidin-3-ol], the IC50 in experiment [1] was 1000 to 10000 nM; in experiment [2] it was below 200 nM. Moreover, in experiment [3], the EC50 fell in the range of 1000 to 10000 nM.
On to `Cn1cnnc1-c1cc(F)ccc1-c1cc(-c2nc3cc(CN[C@@H]4CCC[C@@H]4O)cc(F)c3o2)cc(C2CC2)c1` [JM-4, (1S,2R)-2-(((2-(5-Cyclopropyl-4′-fluoro-2′-(4-methyl-4H-1,2,4-triazol-3-yl)-[1,1′-biphenyl]-3-yl)-7-fluorobenzo[d]oxazol-5-yl)methyl)amino)cyclopentan-1-ol], for which the IC50 in experiment [1] and in experiment [2] was below 200 nM in each case. Further, the EC50 in experiment [3] was below 200 nM.
Consider `Cn1cnnc1-c1cc(F)ccc1-c1cccc(-c2nc3cc(NCCN4CC(F)(F)C4)cc(C(F)(F)F)c3o2)c1` [IF-2, N-(2-(3,3-Difluoroazetidin-1-yl)ethyl)-2-(4′-fluoro-2′-(4-methyl-4H-1,2,4-triazol-3-yl)-[1,1′-biphenyl]-3-yl)-7-(trifluoromethyl)benzo[d]oxazol-5-amine], for which the results for the IC50 in experiment [1] and in experiment [2] were 200 to 1000 nM and below 200 nM, respectively. Moreover, in experiment [3], the EC50 lay within 1000 to 10000 nM.
Regarding `Cn1cnnc1-c1ccccc1-c1cc(-c2nc3cc(CN4CCC5(CC5)C4)cc(C(F)(F)F)c3o2)nc(C2CC2)c1` [AAR-2, 5-{5-Azaspiro[2.4]-heptan-5-ylmethyl}-2-{6-cyclopropyl-4-[2-(4-methyl-1,2,4-triazol-3-yl)-phenyl]-pyridin-2-yl}-7-(trifluoromethyl)-1,3-benzoxazole], the values for the IC50 in experiment [1] and in experiment [2] were 1000 to 10000 nM and below 200 nM, respectively. Also, the EC50 in experiment [3] lay within 1000 to 10000 nM.
As to `Cc1cc(CNCC2CCC2)cc2nc(-c3cc(-c4ccc(F)cc4-c4nncn4C)cc(C4CC4)n3)oc12` [AFF-1, 1-Cyclobutyl-N-((2-(6-cyclopropyl-4-(4-fluoro-2-(4-methyl-4H-1,2,4-triazol-3-yl)phenyl)pyridin-2-yl)-7-methylbenzo[d]oxazol-5-yl)methyl)methanamine], the IC50 in experiment [1] and in experiment [2] was below 200 nM each time. For the same molecule, the half-maximal effective concentration (EC50) in experiment [3] is below 200 nM.
As for `Cn1cnnc1-c1cc(F)ccc1-c1cccc(-c2nc3cc(CO)cc(Br)c3o2)c1` [EQ-4, (7-Bromo-2-(4′-fluoro-2′-(4-methyl-4H-1,2,4-triazol-3-yl)-[1,1′-biphenyl]-3-yl)benzo[d]oxazol-5-yl)methanol], the IC50 in experiment [1] and in experiment [2] was 200 to 1000 nM each time. Moreover, the EC50 in experiment [3] was 1000 to 10000 nM.
On to `COCCNCc1cc(C(F)(F)F)c2[nH]c(-c3cc(-c4ccc(F)cc4-c4nncn4C)cc(C4CC4)n3)nc2c1` [ADW-1, [(2-{6-Cyclopropyl-4-[4-fluoro-2-(4-methyl-1,2,4-triazol-3-yl)phenyl]pyridin-2-yl}-7-(trifluoromethyl)-1H-1,3-benzodiazol-5-yl)methyl](2-methoxyethyl)amine], for which the IC50 in experiment [1] and in experiment [2] was below 200 nM each time. In addition, the EC50 in experiment [3] was below 200 nM.
With `COC(=O)c1cc(C)c2oc(-c3cc(-c4ccc(F)cc4-c4nncn4C)cc(C4CC4)n3)nc2c1` [AES-3, Methyl 2-{6-cyclopropyl-4-[4-fluoro-2-(4-methyl-1,2,4-triazol-3-yl)phenyl]pyridin-2-yl}-7-methyl-1,3-benzoxazole-5-carboxylate], the IC50 in experiment [2] was 1000 to 10000 nM. Besides, the EC50 in experiment [3] was 10000 to 50000 nM.
